In ChEMBL document CHEMBL3507680, “University of Dundee, Gates Library screen for HepG2 cell viability” one finds cytotoxicity data, which are given here for 72 molecules.

The nature of the series: Human HepG2 cell viability assay in 384 well format. The format is toxicity, cell-based. Details: dose 125 nL, time 70.5 hour; cytotoxicity at 70.5 h: concentration not given beside the values. The settings on record: HepG2 cells, read-out: Inhibition.

Molecules are shown by their SMILES.

Consider `Cc1cc(C)n(CCN2CCN(C(=O)c3ccccc3Br)CC2)n1`, for which the cytotoxicity at 70.5 h is -2.29%.

In the case of `Cc1cc(C)n(CCN2CCN(C(=O)c3cc4ccccc4o3)CC2)n1`, the cytotoxicity at 70.5 h was -0.14%.

Turning to `CCOCC(=O)NCC(Cc1cccc(F)c1)N1CCCCC1=O` (configuration not stated), the cytotoxicity at 70.5 h amounted to 30%.

Turning to `Cn1cc(C(=O)NCC(Cc2cccc(F)c2)N2CCCCC2=O)nn1` (configuration not stated), the cytotoxicity at 70.5 h is -14.8%.

In the case of `O=C1NCCN1C(CNS(=O)(=O)C1CC1)Cc1cccc(F)c1` (configuration not stated), the cytotoxicity at 70.5 h was -13.5%.

In the case of `CC(=O)NCC(Cc1cccc(F)c1)n1cccc1` (configuration not stated), the cytotoxicity at 70.5 h is -5.86%.

For the molecule `CCC(=O)NCC(Cc1cccc(F)c1)n1cccc1` (configuration not stated), the cytotoxicity at 70.5 h was -7.66%.

`O=C(NCC(Cc1cccc(F)c1)n1cccc1)C1CC1` (configuration not stated): the cytotoxicity at 70.5 h is -16.2%.

Regarding `COCC(=O)NCC(Cc1cccc(F)c1)n1cccc1` (configuration not stated), the cytotoxicity at 70.5 h turned out to be 0.782%.

As to `O=S(=O)(c1ccccc1Br)N1CCC2(CC1)OCCS2`, the cytotoxicity at 70.5 h is -2.19%.

Take `O=C(NCc1c(F)cccc1F)C1CN(C(=O)c2cnccn2)C1`: the cytotoxicity at 70.5 h was -6.6%.

With `CSc1ccccc1NC(=O)C1CN(C(=O)c2ccc3c(c2)OCO3)C1`, the cytotoxicity at 70.5 h was 0.521%.

On to `O=C(Nc1cccnc1)C1CN(C(=O)c2ccc3c(c2)OCO3)C1`, for which the cytotoxicity at 70.5 h is -14.4%.

In the case of `COCCCNC(=O)C1CN(C(=O)c2cnccn2)C1`, the cytotoxicity at 70.5 h was -15.7%.

For `CCOC(=O)CNC(=O)C1CN(C(=O)c2cnccn2)C1`, the cytotoxicity at 70.5 h was -5.07%.

Turning to `O=C(Nc1cccnc1)C1CCN(c2cc(-n3ccnc3)ncn2)CC1`, the cytotoxicity at 70.5 h was -5.59%.

`O=C(Nc1cccnc1)C1CCCN(c2cc(-n3cccn3)ncn2)C1` (configuration not stated): the cytotoxicity at 70.5 h stood at 4.07%.

For `CCS(=O)(=O)NCC1CCN(c2cnccn2)CC1`, the cytotoxicity at 70.5 h was -6.43%.

With `O=S(=O)(NCC1CCN(c2cnccn2)CC1)c1ccc(F)c(Cl)c1`, the cytotoxicity at 70.5 h was -1.36%.

`COc1ccc(Cl)cc1C(=O)NCC1CCN(C(=O)c2ccoc2)CC1`: the cytotoxicity at 70.5 h was -15.3%.

For the molecule `Cc1csc(C(=O)NCCN2CCC(c3cccs3)CC2)c1`, the cytotoxicity at 70.5 h amounted to 35.6%.

`O=C(NCCN1CCC(c2cccs2)CC1)c1ccc(F)cc1Cl`: the cytotoxicity at 70.5 h was -3.13%.

For the molecule `CSCC(C)(O)CNC(=O)Nc1cc(C)cc(C)c1` (configuration not stated), the cytotoxicity at 70.5 h is -5.72%.

As for `CSCCC(C)(O)CNS(=O)(=O)Cc1ccc(F)cc1` (configuration not stated), the cytotoxicity at 70.5 h was -17%.

In the case of `CSc1ccccc1C(=O)NCCC(O)c1ccco1` (configuration not stated), the cytotoxicity at 70.5 h was determined as 16.9%.

Regarding `CSc1ncccc1C(=O)NCCC(O)c1cccs1` (configuration not stated), the cytotoxicity at 70.5 h was -2.95%.

On to `O=S(=O)(NCCC(O)c1cccs1)c1ccccc1Cl` (configuration not stated), for which the cytotoxicity at 70.5 h is -10.8%.

As to `O=C(Nc1nc2c(s1)CN(C(=O)NCc1cccs1)CC2)C1CC1`, the cytotoxicity at 70.5 h was -9.79%.

With `O=C(Nc1nc2c(s1)CN(S(=O)(=O)C1CC1)CC2)c1ccccn1`, the cytotoxicity at 70.5 h is -1.49%.

In the case of `O=C(Nc1nc2c(s1)CN(S(=O)(=O)C1CC1)CC2)Nc1ccccc1F`, the cytotoxicity at 70.5 h is 23.7%.

As for `O=C(Nc1cccc(C(F)(F)F)c1)N1CCN(CCn2ccnc2)CC1`, the cytotoxicity at 70.5 h was -10.1%.

Take `COc1nn(C)cc1C(=O)NCC1(O)CCOCC1`: the cytotoxicity at 70.5 h is -3.26%.

Turning to `Cc1ccc(S(=O)(=O)NCC2(O)CCOc3ccccc32)s1` (configuration not stated), the cytotoxicity at 70.5 h was -4.01%.

In the case of `Cc1cc(C(=O)NCc2cc(C)oc2C)no1`, the cytotoxicity at 70.5 h was -5.78%.

On to `COC(=O)NCCCn1ccnc1-c1ccccc1`, for which the cytotoxicity at 70.5 h is -6.73%.

As for `CCOCC(=O)NCCCn1ccnc1-c1ccccc1`, the cytotoxicity at 70.5 h was -7.22%.

Regarding `O=C(NCc1nc2ccccc2[nH]1)c1cc2n(n1)CCCO2`, the cytotoxicity at 70.5 h was -1.37%.

Consider `CCOC(=O)Cc1csc(NC(=O)c2cc3n(n2)CCCO3)n1`, for which the cytotoxicity at 70.5 h was -2.3%.

Regarding `O=C(NCc1nc2ccccc2[nH]1)c1cnn2c1OCCC2`, the cytotoxicity at 70.5 h was -1.96%.

For the molecule `Cc1ccccc1C(=O)N1CC2(COC(C)(C)OC2)C1`, the cytotoxicity at 70.5 h was 9.04%.

`CC1(C)OCC2(CO1)CN(C(=O)c1ccccc1Cl)C2`: the cytotoxicity at 70.5 h is -1.63%.

On to `CC1(C)OCC2(CO1)CN(S(=O)(=O)c1ccc(Cl)s1)C2`, for which the cytotoxicity at 70.5 h is -1.76%.

In the case of `CC(=O)N(C)CC(=O)Nc1cnc(-n2ccnc2C)nc1`, the cytotoxicity at 70.5 h turned out to be 27.9%.

For `COCC(=O)Nc1cnc(N2CCCC2)nc1`, the cytotoxicity at 70.5 h is -0.927%.

As for `COCC(=O)Nc1cnc(N2CCOCC2)nc1`, the cytotoxicity at 70.5 h is -3.21%.

As to `O=C(Nc1cnc(N2CCOCC2)nc1)c1ccc(C(F)(F)F)cc1`, the cytotoxicity at 70.5 h was 6.8%.

With `O=C(CCCc1ccccc1)Nc1cnc(N2CCOCC2)nc1`, the cytotoxicity at 70.5 h came out at 2.35%.

As to `O=C(COc1ccc(Cl)cc1)Nc1cnc(N2CCOCC2)nc1`, the cytotoxicity at 70.5 h came to 1.79%.

Consider `CCOc1ccc(NC(=O)Nc2cnc(N3CCOCC3)nc2)cc1`, for which the cytotoxicity at 70.5 h came to 3.88%.

`CN(C)c1ncc(NS(=O)(=O)c2ccc(OC(F)(F)F)cc2)cn1`: the cytotoxicity at 70.5 h was determined as 3.34%.

`CN1CCC2(Cc3ccccc3NC2=O)C1` (configuration not stated): the cytotoxicity at 70.5 h was -3.49%.

`CC(C)C(=O)N1CCCC12CCN(C(=O)c1ccno1)C2` (configuration not stated): the cytotoxicity at 70.5 h is -1.72%.

Regarding `O=C(C[C@H]1[C@H]2CN(C(=O)CO)C[C@@H]12)Nc1cccnc1`, the cytotoxicity at 70.5 h came out at 0.591%.

Consider `CN(C)C(=O)c1nc2c(n1C)CCN(Cc1ccccc1)C2`, for which the cytotoxicity at 70.5 h is 0.767%.

As for `COCCOc1ccc(C(=O)N2CCCC(n3cncn3)C2)cn1` (configuration not stated), the cytotoxicity at 70.5 h was found to be 10.1%.

As for `CCC1c2ccsc2CCN1C(=O)NCc1cc(C)on1` (configuration not stated), the cytotoxicity at 70.5 h was -4.73%.

On to `c1cnnc(N2CCCC2CNCc2nc(-c3ccoc3)no2)c1` (configuration not stated), for which the cytotoxicity at 70.5 h stood at 10%.

Consider `Cc1cnn(C2CCCN(C(=O)Cc3cn4ccsc4n3)C2)c1` (configuration not stated), for which the cytotoxicity at 70.5 h is -5.39%.

Consider `Cn1cc(CN2CCCN(C(=O)c3ccc4ccccc4n3)CC2)cn1`, for which the cytotoxicity at 70.5 h is -13%.

With `O=C(CN1CC(c2nc(C3CC3)no2)C1)N1CCOCC1`, the cytotoxicity at 70.5 h was -17.5%.

As to `c1cncc(-c2noc(C3CN(Cc4cccs4)C3)n2)c1`, the cytotoxicity at 70.5 h was -12.2%.

As for `c1cnc(-c2noc(C3CN(Cc4ccc5c(c4)CCO5)C3)n2)cn1`, the cytotoxicity at 70.5 h was -9.18%.

In the case of `COc1cc(COCC2CCN(Cc3ccccn3)CC2)cc(OC)c1`, the cytotoxicity at 70.5 h was -8.26%.

In the case of `CCS(=O)(=O)N1CCCC2(COCCN(c3cnccn3)C2)C1` (configuration not stated), the cytotoxicity at 70.5 h is -2.48%.

Regarding `O=C(c1ccc[nH]1)N1CCC2(CCCN2Cc2cccnc2)CC1`, the cytotoxicity at 70.5 h is 0.719%.

Turning to `CN(C)C(=O)CN1CCCC2(CCN(c3ccc(C#N)cn3)C2)C1` (configuration not stated), the cytotoxicity at 70.5 h turned out to be 8.76%.

Consider `CNC(=O)[C@@H]1CC[C@@H]2[C@@H](CCN2Cc2ccccc2F)O1`, for which the cytotoxicity at 70.5 h is -4.13%.

For `CN1CCOCC12CCN(c1nncs1)CC2`, the cytotoxicity at 70.5 h was -2.11%.

As for `Cc1ccoc1C(=O)N1C[C@@H](N2CCN(C)CC2)[C@H]2OCCC[C@H]21`, the cytotoxicity at 70.5 h is -4.64%.

As to `CN1CCN([C@@H]2CN(C(=O)Cc3ccsc3)[C@@H]3CCCO[C@H]23)CC1`, the cytotoxicity at 70.5 h was -4.38%.

Regarding `Fc1cnc(N2CC[C@@H]3OC(COCc4cccnc4)CC[C@@H]32)nc1` (some centres not stated), the cytotoxicity at 70.5 h is -4.57%.

For `CN(CCO)CC1COCCN1C(=O)C1(c2cccs2)CCCC1` (configuration not stated), the cytotoxicity at 70.5 h was -1%.
